Tests used:
Format in all cases: functional
MDA-MB-231 [1] = assay: Growth inhibition of human MDA-MB-231 cells assessed as cell growth at 1 uM after 48 hrs by SRB assay; conditions: MDA-MB-231, 48 h, read-out: Activity
HOP-62 = assay: Growth inhibition of human HOP62 cells assessed as cell growth at 10 uM after 48 hrs by SRB assay; conditions: HOP-62, 48 h, read-out: Activity
NCI-H460 = assay: Growth inhibition of human NCI-H460 cells assessed as cell growth at 10 uM after 48 hrs by SRB assay; conditions: NCI-H460, 48 h, read-out: Activity
COLO 205 = assay: Growth inhibition of human COLO205 cells assessed as cell growth at 10 uM after 48 hrs by SRB assay; conditions: COLO 205, 48 h, read-out: Activity
HCC 2998 = assay: Growth inhibition of human HCC2998 cells assessed as cell growth at 10 uM after 48 hrs by SRB assay; conditions: HCC 2998, 48 h, read-out: Activity
HCT-15 = assay: Growth inhibition of human HCT15 cells assessed as cell growth at 10 uM after 48 hrs by SRB assay; conditions: HCT-15, 48 h, read-out: Activity
KM12 = assay: Growth inhibition of human KM12 cells assessed as cell growth at 10 uM after 48 hrs by SRB assay; conditions: KM12, 48 h, read-out: Activity
SNB-75 [2] = assay: Growth inhibition of human SNB75 cells after 48 hrs by […] growth inhibition assay; conditions: SNB-75, 48 h
RXF 393 [3] = assay: Growth inhibition of human RXF393 cells after 48 hrs by […] growth inhibition assay; conditions: RXF 393, 48 h
UO-31 [4] = assay: Growth inhibition of human UO31 cells after 48 hrs by […] growth inhibition assay; conditions: UO-31, 48 h
BT-549 = assay: Growth inhibition of human BT549 cells after 48 hrs by […] growth inhibition assay; conditions: BT-549, 48 h
SF-268 = assay: Growth inhibition of human SF268 cells assessed as cell growth at 0.1 uM after 48 hrs by SRB assay; conditions: SF-268, 48 h, read-out: Activity
UACC-257 [5] = assay: Growth inhibition of human UACC257 cells assessed as cell growth at 0.1 uM after 48 hrs by SRB assay; conditions: UACC-257, 48 h, read-out: Activity
OVCAR-4 = assay: Growth inhibition of human OVCAR4 cells assessed as cell growth at 0.1 uM after 48 hrs by SRB assay; conditions: OVCAR-4, 48 h, read-out: Activity
OVCAR-5 = assay: Growth inhibition of human OVCAR5 cells assessed as cell growth at 0.1 uM after 48 hrs by SRB assay; conditions: OVCAR-5, 48 h, read-out: Activity
SNB-75 [6] = assay: Growth inhibition of human SNB75 cells assessed as cell growth at 10 uM after 48 hrs by SRB assay; conditions: SNB-75, 48 h, read-out: Activity
SK-MEL-28 = assay: Growth inhibition of human SK-MEL-28 cells assessed as cell growth at 10 uM after 48 hrs by SRB assay; conditions: SK-MEL-28, 48 h, read-out: Activity
UACC-257 [7] = assay: Growth inhibition of human UACC257 cells assessed as cell growth at 10 uM after 48 hrs by SRB assay; conditions: UACC-257, 48 h, read-out: Activity
OVCAR-3 = assay: Growth inhibition of human OVCAR3 cells assessed as cell growth at 10 uM after 48 hrs by SRB assay; conditions: OVCAR-3, 48 h, read-out: Activity
SN12C = assay: Growth inhibition of human SN12C cells assessed as cell growth at 10 uM after 48 hrs by SRB assay; conditions: read-out: Activity
UO-31 [8] = assay: Growth inhibition of human UO31 cells assessed as cell growth at 10 uM after 48 hrs by SRB assay; conditions: UO-31, 48 h, read-out: Activity
MDA-MB-231 [9] = assay: Growth inhibition of human MDA-MB-231 cells assessed as cell growth at 10 uM after 48 hrs by SRB assay; conditions: MDA-MB-231, 48 h, read-out: Activity
[10] = Growth inhibition of human Hs 578T cells assessed as cell growth at 10 uM after 48 hrs by SRB assay; conditions: read-out: Activity
SK-MEL-2 [11] = assay: Growth inhibition of human SK-MEL-2 cells assessed as cell growth at 100 uM after 48 hrs by SRB assay; conditions: SK-MEL-2, 48 h, read-out: Activity
RXF 393 [12] = assay: Growth inhibition of human RXF393 cells assessed as cell growth at 100 uM after 48 hrs by SRB assay; conditions: RXF 393, 48 h, read-out: Activity
M14 = assay: Growth inhibition of human M14 cells assessed as cell growth at 1 mM after 48 hrs by SRB assay; conditions: M14, 48 h, read-out: Activity
SK-MEL-2 [13] = assay: Growth inhibition of human SK-MEL-2 cells assessed as cell growth at 1 mM after 48 hrs by SRB assay; conditions: SK-MEL-2, 48 h, read-out: Activity
UACC-62 [14] = assay: Growth inhibition of human UACC62 cells assessed as cell growth at 1 mM after 48 hrs by SRB assay; conditions: UACC-62, 48 h, read-out: Activity
IGROV-1 = assay: Growth inhibition of human IGROV1 cells assessed as cell growth at 1 mM after 48 hrs by SRB assay; conditions: IGROV-1, 48 h, read-out: Activity
SK-OV-3 = assay: Growth inhibition of human SKOV3 cells assessed as cell growth at 1 mM after 48 hrs by SRB assay; conditions: SK-OV-3, 48 h, read-out: Activity
A549 = assay: Growth inhibition of human A549 cells assessed as cell growth at 1 uM after 48 hrs by SRB assay; conditions: A549, 48 h, read-out: Activity
NCI-H226 = assay: Growth inhibition of human NCI-H226 cells assessed as cell growth at 1 uM after 48 hrs by SRB assay; conditions: NCI-H226, 48 h, read-out: Activity
SK-MEL-2 [15] = assay: Growth inhibition of human SK-MEL-2 cells assessed as cell growth at 1 uM after 48 hrs by SRB assay; conditions: SK-MEL-2, 48 h, read-out: Activity
UACC-62 [16] = assay: Growth inhibition of human UACC62 cells assessed as cell growth at 1 uM after 48 hrs by SRB assay; conditions: UACC-62, 48 h, read-out: Activity
[17] = read-out: LC50 (the source's name)
[18] = read-out: pLC50 (the source's name) (converted)

CCOC(=O)C[C@H]1[C@@H](O[Si](C)(C)C(C)(C)C)[C@H](n2cnc3c(NC(=O)Nc4ccccc4)ncnc32)O[C@@H]1CNC(=O)NC
growth at 1 µM (MDA-MB-231 [1]): 103% | growth at 10 µM (HOP-62): 97% | growth at 10 µM (NCI-H460): 101% | growth at 10 µM (COLO 205): 93% | growth at 10 µM (HCC 2998): 93% | growth at 10 µM (HCT-15): 94% | growth at 10 µM (KM12): 105% | GI50 (SNB-75 [2]; read-out: GI50): 4.56 µM | CC50 (SNB-75 [2]; [17]): > 100 µM | TGI (SNB-75 [2]; read-out: TGI): > 100 µM | GI50 (SNB-75 [2]; read-out: pGI50 (converted)): 4.57 µM | CC50 (SNB-75 [2]; [18]): > 100 µM | TGI (SNB-75 [2]; read-out: pTGI (converted)): > 100 µM | GI50 (RXF 393 [3]; read-out: GI50): 2.01 µM | CC50 (RXF 393 [3]; [17]): 19.5 µM | TGI (RXF 393 [3]; read-out: TGI): 4.63 µM | GI50 (RXF 393 [3]; read-out: pGI50 (converted)): 2 µM | CC50 (RXF 393 [3]; [18]): 19.5 µM | TGI (RXF 393 [3]; read-out: pTGI (converted)): 4.68 µM | GI50 (UO-31 [4]; read-out: GI50): 12.1 µM | CC50 (UO-31 [4]; [17]): 71.7 µM | TGI (UO-31 [4]; read-out: TGI): 29.5 µM | GI50 (UO-31 [4]; read-out: pGI50 (converted)): 12 µM | CC50 (UO-31 [4]; [18]): 72.4 µM | TGI (UO-31 [4]; read-out: pTGI (converted)): 29.5 µM | GI50 (BT-549; read-out: GI50): > 100 µM | CC50 (BT-549; [17]): > 100 µM | TGI (BT-549; read-out: TGI): > 100 µM | GI50 (BT-549; read-out: pGI50 (converted)): > 100 µM | CC50 (BT-549; [18]): > 100 µM | TGI (BT-549; read-out: pTGI (converted)): > 100 µM | growth at 0.1 µM (SF-268): 102% | growth at 0.1 µM (UACC-257 [5]): 102% | growth at 0.1 µM (OVCAR-4): 98% | growth at 0.1 µM (OVCAR-5): 104% | growth at 10 µM (SNB-75 [6]): 85% | growth at 10 µM (SK-MEL-28): 100% | growth at 10 µM (UACC-257 [7]): 99% | growth at 10 µM (OVCAR-3): 116% | growth at 10 µM (SN12C): 103% | growth at 10 µM (UO-31 [8]): 82% | growth at 10 µM (MDA-MB-231 [9]): 94% | growth at 10 µM [10]: 90% | growth at 100 µM (SK-MEL-2 [11]): 32% | growth at 100 µM (RXF 393 [12]): -46% | growth at 1000 µM (M14): -56% | growth at 1000 µM (SK-MEL-2 [13]): -30% | growth at 1000 µM (UACC-62 [14]): 60% | growth at 1000 µM (IGROV-1): -58% | growth at 1000 µM (SK-OV-3): 16% | growth at 1 µM (A549): 103% | growth at 1 µM (NCI-H226): 105% | growth at 1 µM (SK-MEL-2 [15]): 94% | growth at 1 µM (UACC-62 [16]): 102%

CNC(=O)NC[C@H]1O[C@@H](n2cnc3c(NC(=O)Nc4ccccc4)ncnc32)[C@H](O[Si](C)(C)C(C)(C)C)[C@@H]1CC(=O)N(C)OC
growth at 1 µM (MDA-MB-231 [1]): 104% | growth at 10 µM (HOP-62): 86% | growth at 10 µM (NCI-H460): 90% | growth at 10 µM (COLO 205): 90% | growth at 10 µM (HCC 2998): 100% | growth at 10 µM (HCT-15): 93% | growth at 10 µM (KM12): 106% | GI50 (SNB-75 [2]; read-out: GI50): 12.7 µM | CC50 (SNB-75 [2]; [17]): > 100 µM | TGI (SNB-75 [2]; read-out: TGI): > 100 µM | GI50 (SNB-75 [2]; read-out: pGI50 (converted)): 12.9 µM | CC50 (SNB-75 [2]; [18]): > 100 µM | TGI (SNB-75 [2]; read-out: pTGI (converted)): > 100 µM | GI50 (RXF 393 [3]; read-out: GI50): 9.74 µM | CC50 (RXF 393 [3]; [17]): > 100 µM | TGI (RXF 393 [3]; read-out: TGI): 38 µM | GI50 (RXF 393 [3]; read-out: pGI50 (converted)): 9.77 µM | CC50 (RXF 393 [3]; [18]): > 100 µM | TGI (RXF 393 [3]; read-out: pTGI (converted)): 38 µM | GI50 (UO-31 [4]; read-out: GI50): 7.79 µM | CC50 (UO-31 [4]; [17]): > 100 µM | TGI (UO-31 [4]; read-out: TGI): > 100 µM | GI50 (UO-31 [4]; read-out: pGI50 (converted)): 7.76 µM | CC50 (UO-31 [4]; [18]): > 100 µM | TGI (UO-31 [4]; read-out: pTGI (converted)): > 100 µM | GI50 (BT-549; read-out: GI50): 29 µM | CC50 (BT-549; [17]): > 100 µM | TGI (BT-549; read-out: TGI): > 100 µM | GI50 (BT-549; read-out: pGI50 (converted)): 28.8 µM | CC50 (BT-549; [18]): > 100 µM | TGI (BT-549; read-out: pTGI (converted)): > 100 µM | growth at 0.1 µM (SF-268): 98% | growth at 0.1 µM (UACC-257 [5]): 95% | growth at 0.1 µM (OVCAR-4): 100% | growth at 0.1 µM (OVCAR-5): 99% | growth at 10 µM (SNB-75 [6]): 84% | growth at 10 µM (SK-MEL-28): 101% | growth at 10 µM (UACC-257 [7]): 102% | growth at 10 µM (OVCAR-3): 100% | growth at 10 µM (SN12C): 96% | growth at 10 µM (UO-31 [8]): 82% | growth at 10 µM (MDA-MB-231 [9]): 94% | growth at 10 µM [10]: 82% | growth at 100 µM (SK-MEL-2 [11]): 62% | growth at 100 µM (RXF 393 [12]): 49% | growth at 1000 µM (M14): 18% | growth at 1000 µM (SK-MEL-2 [13]): -5% | growth at 1000 µM (UACC-62 [14]): 39% | growth at 1000 µM (IGROV-1): -6% | growth at 1000 µM (SK-OV-3): 38% | growth at 1 µM (A549): 100% | growth at 1 µM (NCI-H226): 111% | growth at 1 µM (SK-MEL-2 [15]): 83% | growth at 1 µM (UACC-62 [16]): 107%

Reference: ChEMBL document CHEMBL1681651, “A broad spectrum anticancer nucleoside with selective toxicity against human colon cells in vitro” (2011)
